Assay results from patent US5252463A, “Clipsin, a chymotrypsin-like protease and method of using same” (The Du Pont Merck Pharmaceutical Company, priority 1990, dated 1993).
Where two headings read alike, the source gives them in different places. Starred links: 1 amine or outer side, 2 acyl side, 3 side chain; linkers in the order of their positions; H or OH if unused. Residues, ends and D or L forms follow the SMILES beside them. *: point of attachment. pNA = O=[N+]([O-])c1ccc(N*)cc1; Suc = O=C(CCC(=O)[*:2])[*:1]; MeOSuc = COC(=O)CCC(=O)*

How the values were obtained:
clipsin [1] = target: T1, clipsin (Rattus norvegicus, UniProt P09650); assay: In vitro chromogenic substrate assay: inhibition of Suc-Ala-Ala-Pro-Phe-p-nitroanilide hydrolysis by Mg2+ extract; type: biochemical; parameters: Forebrains from 5-day-old rats were stripped of meninges and homogenized; from tissue; host or cells: forebrain of 5-day-old rats, membrane-associated, 1M MgCl2 extract (partially enriched); conditions: for remaining activity at 10 µM: read-out: Relative Clipsin Activity (ΔOD as a percentage of the control value)
T1 sequence (P09650 21-260): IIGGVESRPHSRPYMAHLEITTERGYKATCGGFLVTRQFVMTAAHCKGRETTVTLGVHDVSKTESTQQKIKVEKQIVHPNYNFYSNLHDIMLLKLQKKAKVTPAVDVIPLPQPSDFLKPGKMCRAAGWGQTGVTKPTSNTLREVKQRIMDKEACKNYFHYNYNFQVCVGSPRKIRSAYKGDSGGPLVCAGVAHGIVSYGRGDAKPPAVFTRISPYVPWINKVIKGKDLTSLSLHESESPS

clipsin [2] = target: T1, clipsin; assay: Enzymography: clipsin activity in 125I-gelatin-containing polyacrylamide gels; type: biochemical; parameters: Mr 25,000 band in gelatin enzymography; conditions: for Inhibition of clipsin by peptide boronic acids (in words): 10 μM final concentrations
bovine chymotrypsin [3] = target: T2, bovine chymotrypsin (Bos taurus, UniProt P00766); assay: Hydrolysis kinetics of tetrapeptide p-nitroanilide substrates by chymotrypsin; type: biochemical; conditions: ratio chymotrypsin/clipsin for the same substrate
T2 construct: mature chains cut from chymotrypsinogen A
Description: (§1) Correlation coefficients were greater than 0.99.

[4] = target: T3, human leukocyte cathepsin G (Homo sapiens, UniProt P08311); assay: Hydrolysis kinetics of tetrapeptide p-nitroanilide substrates by cathepsin G; type: biochemical; conditions: pH 7.5, 50° C.; for Km: 10% dimethyl sulfoxide; for kcat: α-1-AChy-titrated enzyme concentration
T3 sequence (P08311 21-244): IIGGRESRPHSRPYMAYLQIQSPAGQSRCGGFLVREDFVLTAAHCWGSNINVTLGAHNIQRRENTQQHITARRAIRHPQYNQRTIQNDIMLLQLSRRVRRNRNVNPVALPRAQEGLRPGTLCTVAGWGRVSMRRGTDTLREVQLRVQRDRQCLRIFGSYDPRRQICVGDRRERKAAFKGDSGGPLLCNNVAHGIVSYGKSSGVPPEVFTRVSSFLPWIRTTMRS
Description: as §1

[5] = test system: T4, COC(=O)CCC(=O)N[C@@H](C)C(=O)N[C@@H](C)C(=O)N1CCC[C@H]1C(=O)N[C@@H](CCSC)C(=O)Nc1ccc([N+](=O)[O-])cc1; assay: Hydrolysis kinetics of tetrapeptide p-nitroanilide substrates by chymotrypsin; type: biochemical, bovine; conditions: other: chymotrypsin, pH 7.5, 50° C., 10% dimethyl sulfoxide
T4 construct: mature chains cut from chymotrypsinogen A
Description: as §1

[6] = test system: T5, C[C@H](NC(=O)CCC(=O)O)C(=O)N[C@@H](C)C(=O)N1CCC[C@H]1C(=O)N[C@@H](Cc1ccccc1)C(=O)Nc1ccc([N+](=O)[O-])cc1; assay: as above; type: biochemical, bovine; conditions: other: chymotrypsin, pH 7.5, 50° C., 10% dimethyl sulfoxide
T5 construct: mature chains cut from chymotrypsinogen A
Description: as §1

[7] = test system: major Coomassie Blue-detectable proteins from rat cortical membranes; assay: Breakdown of rat cortical membrane proteins by Mg2+ extract, Coomassie Blue-stained gels; type: biochemical; conditions: inhibitor included in the incubation
Protocol: (§2) Mg^2+ extract at 60% (about 4.2 nM clipsin final) was incubated with a crude membrane fraction from adult rat cortex (2.8 mg/mL protein final; Siman et al., (1989) J. Neurosci. 9, 1579-1590). Proteolysis reactions were performed at 37° C. for 1 h before quenching the reactions with sodium dodecyl sulfate-containing electrophoresis sample buffer and heating the samples to 90° C. for 5 min. Overall breakdown of proteins were determined by Coomassie Blue staining of gels, whereas β-APP degradation was assessed by Western blotting of identical gels. β-APP was visualized as 110-130-kDa bands using antiserum 385 as described previously (Siman et al., (1989) Neuron 3, 275-285). β-APP-immunostained polypeptides on Western blots and the corresponding major Coomassie Blue-stained protein bands on sodium dodecyl sulfate-containing polyacrylamide gels were quantified by scanning laser densitometry.
We began looking for potential endogenous substrates of clipsin by incubating rat cortical membranes with Mg^2+ extract and measuring loss of the major protein bands following separation of the incubated samples by polyacrylamide gel electrophoresis. […] No other bands varied more than 25%, and no protease activity endogenous to cortical membranes could be detected when comparing 37° C. incubated membranes with parallel samples kept on ice.

β-APP = β-APP degradation in rat cortical membranes by Mg2+ extract, Western blot with antiserum 385; type: biochemical; conditions: inhibitor included in the incubation
Protocol: as §2

clipsin [8] = target: T1, clipsin; assay: Association rate constant for α-1-AChy binding to clipsin, second-order conditions; parameters: Mr 25,000 band in gelatin enzymography; conditions: equimolar clipsin and α-1-AChy
Protocol: The association rate constant for α-1-AChy binding to clipsin was determined under second-order conditions as described previously for α-1-AChy binding to other chymotrypsin-like proteases (Beatty et al., (1980) J. Biol. Chem. 255, 3931-3934). Using the titrated concentration of clipsin, an equimolar concentration of α-1-AChy was preincubated with Mg^2+ extract for various periods of time before addition of 2 mM substrate which stopped the reaction and was used to measure residual enzyme activity. The half-life time of reaction (t1/2) was calculated from a plot of .nu.^-1 versus t, and in turn used to calculate the association rate constant ^k assoc through the following: kassoc =1/t1/2 [Eγ], where [Eγ] stands for the total enzyme concentration (Beatty et al., (1980) J. Biol. Chem. 255, 3931-3934).
Using the titrated value for clipsin concentration in the Mg^2+ extract, we combined equimolar concentrations of clipsin and α-1-AChy to determine the association rate constant between these two proteins, as described previously (Equation 4 in Beatty et al., (1980) J. Biol. Chem. 255, 3931-3934). The ^k assoc was determined to be 2.9×10^6 M^-1 s^-1, a value falling between those determined previously for chymotrypsin and cathepsin G (Beatty et al., (1980) J. Biol. Chem. 255, 3931-3934).

clipsin [9] = target: T1, clipsin; assay: Titration of clipsin activity in Mg2+ extract with α-1-AChy in vitro; type: biochemical; parameters: Mr 25,000 band in gelatin enzymography; conditions: 20% Mg2+ extract
human cathepsin G = conditions: cited from earlier work
bovine chymotrypsin [10] = target: T2, bovine chymotrypsin; conditions: cited from earlier work
[11] = inhibitor 10 μM, 20% Mg2+ extract (1.4 nM clipsin), 2 mM Suc-Ala-Ala-Pro-Phe-p-nitroanilide, 1 h, 37° C., average of three

Bz-Pro-Phe-boro-Arg-OH [Sample 5]
Relative Clipsin Activity (ΔOD as a percentage of the control value) (clipsin [1]; [11]): 84% | Inhibition of clipsin by peptide boronic acids (in words) (clipsin [2]; enzymography): only marginally

COC(=O)CCC(=O)N[C@@H](C)C(=O)N[C@@H](C)C(=O)N1CCC[C@H]1C(=O)N[C@H](B(O)O)C(C)C [Sample 4, MeO-Suc-Ala-Ala-Pro-boro-Val-OH]
remaining activity at 10 µM (clipsin [1]; [11]): 94% | Inhibition of clipsin by peptide boronic acids (in words) (clipsin [2]; enzymography): lack of inhibition

CCN1C(=O)C=CC1=O [N-ethylmaleimide]
Inhibition of clipsin activity by class-specific protease inhibitors (in words) (clipsin [2]): not inhibited

COC(=O)CCC(=O)N[C@@H](C)C(=O)N[C@@H](C)C(=O)N1CCC[C@H]1C(=O)N[C@@H](CCSC)C(=O)Nc1ccc([N+](=O)[O-])cc1 [R'--Met-p-nitroanilide] (MeOSuc-AAPM-pNA)
kcat /Km of chymotrypsin relative to clipsin (bovine chymotrypsin [3]): 8.5 fold | kcat /Km [4]: 4,300 M^-1 S^-1 | Km [4]: 540 µM | kcat [4]: 2.3 s⁻¹

c1cnc2c(c1)ccc1cccnc12 [1,10-0-phenanthroline]
Inhibition of clipsin activity by class-specific protease inhibitors (in words) (clipsin [2]; enzymography, 1 mM EDTA present): Lack of complete inhibition

bovine chymotrypsin (Bos taurus)
Km [5]: 1800 µM | kcat [5]: 80 s⁻¹ | kcat/Km [5]: 44,000 M^-1 S^-1 | Km [6]: 130 µM | kcat [6]: 120 s⁻¹ | kcat/Km [6]: 910,000 M^-1 S^-1

O=C(O)CI [iodoacetic acid]
Inhibition of clipsin activity by class-specific protease inhibitors (in words) (clipsin [2]): not inhibited

COC(=O)CCC(=O)N[C@@H](C)C(=O)N[C@@H](C)C(=O)N1CCC[C@H]1C(=O)N[C@@H](Cc1ccccc1)B(O)O [Sample 2, MeO-Suc-Ala-Ala-Pro-boro-Phe-OH]
Blocking of the clipsin-induced decrease of the protein doublet (in words) [7]: could be blocked | remaining activity at 10 µM (clipsin [1]; [11]): 8% | Inhibition of clipsin by peptide boronic acids (in words) (clipsin [2]; enzymography): preferentially inhibited | Blocking of the clipsin-induced loss of β-APP immunoreactivity (in words) (β-APP): specifically blocked

COC(=O)CCC(=O)N[C@@H](C)C(=O)N[C@@H](C)C(=O)N1CCC[C@H]1C(=O)N[C@@H](C)B(O)O [Sample 3, MeO-Suc-Ala-Ala-Pro-boro-Ala-OH]
remaining activity at 10 µM (clipsin [1]; [11]): 97% | Inhibition of clipsin by peptide boronic acids (in words) (clipsin [2]; enzymography): lack of inhibition

C[C@H](NC(=O)CCC(=O)O)C(=O)N[C@@H](C)C(=O)N1CCC[C@H]1C(=O)N[C@@H](Cc1ccccc1)C(=O)Nc1ccc([N+](=O)[O-])cc1 [R--Phe-p-nitroanilide, Suc-Ala-Ala-Pro-Phe-p-nitroanilide] (Suc-AAPF-pNA)
kcat /Km of chymotrypsin relative to clipsin (bovine chymotrypsin [3]): 16 fold | kcat /Km [4]: 4,800 M^-1 S^-1 | Km [4]: 3300 µM | kcat [4]: 16 s⁻¹

O=S(=O)(F)Cc1ccccc1 [phenylmethylsulfonyl fluoride]
Inhibition of clipsin activity by class-specific protease inhibitors (in words) (clipsin [2]): inhibited clipsin activity

B1: α-1-antichymotrypsin (protein, UniProt P01011 24-423, looked up)
Alpha-1-antichymotrypsin: HPNSPLDEENLTQENQDRGTHVDLGLASANVDFAFSLYKQLVLKAPDKNVIFSPLSISTALAFLSLGAHNTTLTEILKGLKFNLTETSEAEIHQSFQHLLRTLNQSSDELQLSMGNAMFVKEQLSLLDRFTEDAKRLYGSEAFATDFQDSAAAKKLINDYVKNGTRGKITDLIKDLDSQTMMVLVNYIFFKAKWEMPFDPQDTHQSRFYLSKKKWVMVPMMSLHHLTIPYFRDEELSCTVVELKYTGNASALFILPDQDKMEEVEAMLLPETLKRWRDSLEFREIGELYLPKFSISRDYNLNDILLQLGIEEAFTSKADLSGITGARNLAVSQVVHKAVLDVFEEGTEASAATAVKITLLSALVETRTIVRFNRPFLMIIVPTDTQNIFFMSKVTNPKQA
kassoc, association rate constant of α-1-AChy with clipsin (clipsin [8]): 2.9e+06 M⁻¹ s⁻¹ | α-1-AChy concentration producing rapid inhibition of clipsin activity (clipsin [9]): ≥ 3.5 nM | α-1-AChy necessary to inhibit 100% clipsin activity (titration point) (clipsin [9]; titration curve at 120 min preincubation): 1.4 nM | Inhibition of clipsin activity in vitro (in words) (clipsin [1]; pilot experiments, […]): effective inhibitor | kassoc reported for α-1-AChy binding to human cathepsin G (human cathepsin G): 5.1e+07 M⁻¹ s⁻¹ | kassoc reported for α-1-AChy binding to bovine chymotrypsin (bovine chymotrypsin [10]): 60000 M⁻¹ s⁻¹
